Key:
[1] = biological target: RIP1 (Homo sapiens (Human), UniProt Q13546); assay: KINOMEscan binding assay, RIP1; details: Table 35
[2] = biological target: RIP3 (Homo sapiens (Human), UniProt Q9Y572); assay: KINOMEscan binding assay, RIP3; details: Table 35
Method: Kinase assays. For most assays, kinase-tagged T7 phage strains were grown in parallel in 24-well blocks in an E. coli host derived from the BL21 strain. E. coli were grown to log-phase and infected with T7 phage from a frozen stock (multiplicity of infection=0.4) and incubated with shaking at 32° C. until lysis (90-150 minutes).
The Hill Slope was set to −1.

Sequence of RIP3 (Q9Y572 whole entry): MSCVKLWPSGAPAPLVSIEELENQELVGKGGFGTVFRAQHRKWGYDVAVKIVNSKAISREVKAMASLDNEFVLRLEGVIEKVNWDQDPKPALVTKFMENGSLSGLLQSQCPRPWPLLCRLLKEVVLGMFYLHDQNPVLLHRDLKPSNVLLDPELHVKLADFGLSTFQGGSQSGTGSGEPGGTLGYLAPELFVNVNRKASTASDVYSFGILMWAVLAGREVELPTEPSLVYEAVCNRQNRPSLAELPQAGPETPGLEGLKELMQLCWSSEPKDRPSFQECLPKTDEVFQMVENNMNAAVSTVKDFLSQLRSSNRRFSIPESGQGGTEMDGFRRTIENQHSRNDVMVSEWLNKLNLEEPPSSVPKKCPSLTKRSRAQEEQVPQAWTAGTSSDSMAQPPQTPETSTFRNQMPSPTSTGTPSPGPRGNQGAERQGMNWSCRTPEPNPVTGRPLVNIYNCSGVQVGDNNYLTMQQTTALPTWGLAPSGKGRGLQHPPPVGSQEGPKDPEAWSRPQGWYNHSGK
Sequence of RIP1 (Q13546 whole entry): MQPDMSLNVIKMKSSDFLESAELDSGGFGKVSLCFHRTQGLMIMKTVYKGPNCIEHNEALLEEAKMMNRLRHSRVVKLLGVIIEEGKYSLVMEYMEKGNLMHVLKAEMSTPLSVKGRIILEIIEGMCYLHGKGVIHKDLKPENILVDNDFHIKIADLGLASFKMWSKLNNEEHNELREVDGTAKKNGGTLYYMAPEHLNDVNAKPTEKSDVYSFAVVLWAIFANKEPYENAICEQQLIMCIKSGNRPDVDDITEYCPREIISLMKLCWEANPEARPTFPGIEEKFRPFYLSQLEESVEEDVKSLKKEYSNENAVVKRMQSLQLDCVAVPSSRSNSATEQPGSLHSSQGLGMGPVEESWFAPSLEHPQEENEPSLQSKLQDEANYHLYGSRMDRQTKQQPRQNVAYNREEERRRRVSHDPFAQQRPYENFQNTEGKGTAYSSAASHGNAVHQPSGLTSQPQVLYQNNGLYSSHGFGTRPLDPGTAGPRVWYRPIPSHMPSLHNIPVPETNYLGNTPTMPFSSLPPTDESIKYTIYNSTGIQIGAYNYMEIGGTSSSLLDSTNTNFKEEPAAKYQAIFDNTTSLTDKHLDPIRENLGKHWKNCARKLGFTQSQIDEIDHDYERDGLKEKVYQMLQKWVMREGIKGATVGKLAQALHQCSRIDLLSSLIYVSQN

SMILES	Kd [1] [µM]	Kd [2] [µM]
CCS(=O)(=O)Nc1ccc(-c2n[nH]c(Nc3cccnn3)c2C(N)=O)cc1 [Compound 64, 3-(4-ethanesulfonamidophenyl)-5-[(pyridazin-3-yl)amino]-1H-pyrazole-4-carboxamide]	> 30	> 30
COCCOc1cc(Nc2[nH]nc(-c3ccc(NS(=O)(=O)CCN(C)C)cc3)c2C(N)=O)ccn1 [Compound 116, 3-(4-((2-(dimethylamino)ethyl)sulfonamido)phenyl)-5-((2-(2-methoxyethoxy)pyridin-4-yl)amino)-1H-pyrazole-4-carboxamide]	> 30	> 30
NC(=O)c1c(-c2ccc(NS(=O)(=O)CCC(F)(F)F)c(OCc3ccc(F)cc3)c2)n[nH]c1Nc1cccc(C(F)(F)F)n1 [Compound 182, 3-(3-((4-fluorobenzyl)oxy)-4-((3,3,3-trifluoropropyl)sulfonamido)phenyl)-5-((6-(trifluoromethyl)pyridine-2-yl)amino)-1H-pyrazole-4-carboxamide]	> 30	> 30
CCS(=O)(=O)Nc1ccc(-c2n[nH]c(Nc3cccnc3)c2C(N)=O)cc1OCc1ccc(F)cc1 [Compound 6, 3-(4-(ethylsulfonamido)-3-((4-fluorobenzyl)oxy)phenyl) 5-(pyridin-3-ylamino)-1H-pyrazole-4-carboxamide]	> 30	> 30
CCS(=O)(=O)Nc1ccc(-c2n[nH]c(Nc3cnccn3)c2C(N)=O)cc1OCc1ccccc1F [Compound 2, 3-(4-(ethylsulfonamido)-3-((2-fluorobenzyl)oxy)phenyl)-5-(pyrazin-2-ylamino)-1H-pyrazole-4-carboxamide]	> 30	> 30
CCS(=O)(=O)Nc1ccc(-c2n[nH]c(Nc3ccc(C(F)(F)F)cn3)c2C(N)=O)cc1OCc1ccc(F)cc1 [Compound 207]	> 30	> 30
Cc1ccc(CS(=O)(=O)Nc2ccc(-c3n[nH]c(Nc4ccccn4)c3C(N)=O)cc2)cc1 [Compound 132, 5-(pyridin-2-ylamino)-3-(4-((p-tolylmethyl)sulfonamido)phenyl)-1H-pyrazole-4-carboxamide]	> 30	> 30
CCS(=O)(=O)Nc1ccc(-c2n[nH]c(Nc3cnccn3)c2C(N)=O)c(OC)c1 [Compound 209, 3-(4-(ethylsulfonamido)-2-methoxyphenyl)-5-(pyrazin-2-ylamino)-1H-pyrazole-4-carboxamide]	> 30	> 30
CN(C)CCS(=O)(=O)Nc1ccc(-c2n[nH]c(Nc3cccc(C(F)(F)F)n3)c2C(N)=O)cc1 [Compound 51, 3-(4-((2-(dimethylamino)ethyl)sulfonamido)phenyl)-5-((6-(trifluoromethyl)pyridin-2-yl)amino)-1H-pyrazole-4-carboxamide]	> 30	> 30
C[C@H](Oc1cc(NS(=O)(=O)C(F)F)ccc1-c1n[nH]c(Nc2cnccn2)c1C(N)=O)c1ccc(F)cc1 [Compound 243, 3-[4-(difluoromethanesulfonamido)-2-[(1 S)-1-(4-fluorophenyl)ethoxy]phenyl]-5-[(pyrazin-2-yl)amino]-1H-pyrazole-4-carboxamide]	> 30	> 30
CCS(=O)(=O)Nc1ccc(-c2n[nH]c(Nc3cccc(C(F)(F)F)n3)c2C(N)=O)cc1OCc1ccncc1 [Compound 16, 3-(4-(ethylsulfon-amido)-3-(pyridin-4-ylmethoxy)phenyl)-5-((6-(trifluoro-methyl)pyridin-2-yl)amino)-1H-pyrazole-4-carboxamide]	> 30	> 30
COCCS(=O)(=O)Nc1ccc(-c2n[nH]c(Nc3cccc(C(F)(F)F)n3)c2C(N)=O)cc1 [Compound 50, 3-(4-((2-methoxyethyl)sulfonamido)phenyl)-5-((6-(trifluoromethyl)pyridin-2-yl)amino)-1H-pyrazole-4-carboxamide]	> 30	> 30
CCCS(=O)(=O)Nc1ccc(-c2n[nH]c(Nc3cnccn3)c2C(N)=O)cc1 [Compound 97, 3-(4-(propylsulfonamido)phenyl)-5-(pyrazin-2-ylamino)-1H-pyrazole-4-carboxamide]	> 30	> 30
CC(C)(C)S(=O)(=O)Nc1ccc(-c2n[nH]c(Nc3cnccn3)c2C(N)=O)cc1 [Compound 69, 3-(4-((1,1-dimethylethyl)sulfonamido)phenyl)-5-(pyrazin-2-ylamino)-1H-pyrazole-4-carboxamide]	> 30	> 30
COc1ccc(S(=O)(=O)Nc2ccc(-c3n[nH]c(Nc4cnccn4)c3C(N)=O)cc2)cc1 [Compound 82, 3-(4-((4-methoxyphenyl)sulfonamido)phenyl)-5-(pyrazin-2-ylamino)-1H-pyrazole-4-carboxamide]	> 30	> 30
C[C@@H](Oc1cc(NS(=O)(=O)CC(F)(F)F)ccc1-c1n[nH]c(Nc2cnccn2)c1C(N)=O)c1ccc(F)cc1 [Compound 254, 3-{2-[(1R)-1-(4-fluorophenyl)ethoxy]-4-(2,2,2-trifluoroethanesulfonamido)phenyl}-5-[(pyrazin-2-yl)amino]-1H-pyrazole-4-carboxamide]	> 30	> 30
CCS(=O)(=O)Nc1ccc(-c2n[nH]c(Nc3cccc(C(F)(F)F)n3)c2C(N)=O)cc1OCC1CCCCC1 [Compound 200]	> 30	> 30
CCS(=O)(=O)Nc1ccc(-c2n[nH]c(Nc3ccccn3)c2C(N)=O)cc1OCC(C)C [Compound 37, 3-(4-(ethylsulfonamido)-3-isobutoxyphenyl)-5-(pyridin-2-ylamino)-1H-pyrazole-4-carboxamide]	> 30	> 30
CCS(=O)(=O)Nc1ccc(-c2n[nH]c(Nc3cnccn3)c2C(N)=O)cc1OCC1CCN(C(C)=O)CC1 [Compound 7, 3-(3-((1-acetylpiperidin-4-yl)methoxy)-4-(ethylsulfonamido)phenyl)-5-(pyrazin-2-ylamino)-1H-pyrazole-4-carboxamide]	> 30	> 30
CCS(=O)(=O)Nc1ccc(-c2n[nH]c(Nc3cnccn3)c2C(N)=O)c(OCc2cccc(F)c2)c1 [Compound 208, 3-(4-(ethylsulfonamido)-2-((3-fluorobenzyl)oxy)phenyl)-5-(pyrazin-2-ylamino)-1H-pyrazole-4-carboxamide]	> 30	> 30
CCS(=O)(=O)Nc1ccc(-c2n[nH]c(Nc3cnc4cc(Cl)ccc4n3)c2C(N)=O)cc1 [Compound 65, 5-((6-chloroquinoxalin-2-yl)amino)-3-(4-(ethylsulfonamido)phenyl)-1H-pyrazole-4-carboxamide]	> 30	> 30
NC(=O)c1c(-c2ccc(NS(=O)(=O)CC3CCC3)cc2)n[nH]c1Nc1cnccn1 [Compound 81, 3-(4-((cyclobutylmethyl)sulfonamido)phenyl)-5-(pyrazin-2-ylamino)-1H-pyrazole-4-carboxamide]	> 30	> 30
CCS(=O)(=O)Nc1ccc(-c2n[nH]c(Nc3cnccn3)c2C(N)=O)cc1OCC1CCN(C)CC1 [Compound 203, 3-(4-(ethylsulfonamido)-3-((1-methylpiperidin-4-yl)methoxy)phenyl)-5-(pyrazin-2-ylamino)-1H-pyrazole-4-carboxamide]	> 30	> 30

Source: patent US20250074891A1 (Anaxis Pharma Pty Ltd., priority 2021, published 2025)
